Assay results taken from the supplement of paper PMC8967900.

Legend:
Test in all cases: selective drug sensitivity score (sDSS, relative to normal bone marrow) (sDSS (score)); higher = more potent and effective on the cell line relative to normal bone marrow cells
Conditions in all cases: 72 h
697 = test system: 697
CCRF-CEM = test system: CCRF-CEM
COG-LL-317 = test system: COG-LL-317
COG-LL-332h = test system: COG-LL-332h
COG-LL-394h = test system: COG-LL-394h
COG-LL-402h = test system: COG-LL-402h
DND-41 = test system: DND-41
HAL-01 = test system: HAL-01
HPB-ALL = test system: HPB-ALL
KASUMI-2 = test system: KASUMI-2
KOPN-8 = test system: KOPN-8
LC4-1 = test system: LC4-1
MOLT-14 = test system: MOLT-14
MOLT-16 = test system: MOLT-16
MOLT-4 = test system: MOLT-4
P12-ICHIKAWA = test system: P12-ICHIKAWA
P30-OHKUBO = test system: P30-OHKUBO
SEM cells = test system: SEM cells
SUP-B15 = test system: SUP-B15
TANOUE = test system: TANOUE
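Note: ALL cell lines in 384-well plates, five doses spanning 10,000-fold, each plate scaled between vehicle and 100 µmol/L benzalkonium chloride controls, sDSS an adapted area-under-curve metric.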

## COc1cc2c(N3CCN(C(=O)Nc4ccc(OC(C)C)cc4)CC3)ncnc2cc1OCCCN1CCCCC1 [Tandutinib] (top concentration 1000 nM)
697
  selective drug sensitivity score: 0
CCRF-CEM
  selective drug sensitivity score: 0
COG-LL-317
  selective drug sensitivity score: 0.7
COG-LL-332h
  selective drug sensitivity score: 0
COG-LL-394h
  selective drug sensitivity score: 0.3
COG-LL-402h
  selective drug sensitivity score: 0
DND-41
  selective drug sensitivity score: 2.3
HAL-01
  selective drug sensitivity score: 0
HPB-ALL
  selective drug sensitivity score: 0
KASUMI-2
  selective drug sensitivity score: 0
KOPN-8
  selective drug sensitivity score: 0
LC4-1
  selective drug sensitivity score: 0
MOLT-14
  selective drug sensitivity score: 0
MOLT-16
  selective drug sensitivity score: 0
MOLT-4
  selective drug sensitivity score: 0
P12-ICHIKAWA
  selective drug sensitivity score: 0
P30-OHKUBO
  selective drug sensitivity score: 0
SEM cells
  selective drug sensitivity score: 4.2
SUP-B15
  selective drug sensitivity score: 0.5
TANOUE
  selective drug sensitivity score: 0

## Cn1nnc2c(C(N)=O)ncn2c1=O [Temozolomide] (top concentration 100000 nM)
697
  selective drug sensitivity score: 3.76
CCRF-CEM
  selective drug sensitivity score: 7.16
COG-LL-317
  selective drug sensitivity score: -0.04
COG-LL-332h
  selective drug sensitivity score: -0.04
COG-LL-394h
  selective drug sensitivity score: -0.04
COG-LL-402h
  selective drug sensitivity score: -0.04
DND-41
  selective drug sensitivity score: -0.04
HAL-01
  selective drug sensitivity score: -0.04
HPB-ALL
  selective drug sensitivity score: -0.04
KASUMI-2
  selective drug sensitivity score: -0.04
KOPN-8
  selective drug sensitivity score: -0.04
LC4-1
  selective drug sensitivity score: -0.04
MOLT-14
  selective drug sensitivity score: 3.36
MOLT-16
  selective drug sensitivity score: 5.16
MOLT-4
  selective drug sensitivity score: 1.86
P12-ICHIKAWA
  selective drug sensitivity score: 4.96
P30-OHKUBO
  selective drug sensitivity score: 3.36
SEM cells
  selective drug sensitivity score: 6.46
SUP-B15
  selective drug sensitivity score: -0.04
TANOUE
  selective drug sensitivity score: -0.04

## CN1CCC(COc2cnc(-c3cccc(Cn4nc(-c5cccc(C#N)c5)ccc4=O)c3)nc2)CC1 [Tepotinib] (top concentration 1000 nM)
697
  selective drug sensitivity score: -0.08
CCRF-CEM
  selective drug sensitivity score: -0.08
COG-LL-317
  selective drug sensitivity score: 0.52
COG-LL-332h
  selective drug sensitivity score: -0.08
COG-LL-394h
  selective drug sensitivity score: -0.08
COG-LL-402h
  selective drug sensitivity score: -0.08
DND-41
  selective drug sensitivity score: -0.08
HAL-01
  selective drug sensitivity score: -0.08
HPB-ALL
  selective drug sensitivity score: -0.08
KASUMI-2
  selective drug sensitivity score: 2.02
KOPN-8
  selective drug sensitivity score: -0.08
LC4-1
  selective drug sensitivity score: 4.62
MOLT-14
  selective drug sensitivity score: -0.08
MOLT-16
  selective drug sensitivity score: -0.08
MOLT-4
  selective drug sensitivity score: -0.08
P12-ICHIKAWA
  selective drug sensitivity score: -0.08
P30-OHKUBO
  selective drug sensitivity score: -0.08
SEM cells
  selective drug sensitivity score: 0.22
SUP-B15
  selective drug sensitivity score: -0.08
TANOUE
  selective drug sensitivity score: -0.08

## NC(=S)N/N=C/c1ncccc1N [Triapine] (top concentration 10000 nM)
697
  selective drug sensitivity score: 5.88
CCRF-CEM
  selective drug sensitivity score: 2.68
COG-LL-317
  selective drug sensitivity score: 0.88
COG-LL-332h
  selective drug sensitivity score: 2.78
COG-LL-394h
  selective drug sensitivity score: 0.88
COG-LL-402h
  selective drug sensitivity score: 9.28
DND-41
  selective drug sensitivity score: 7.38
HAL-01
  selective drug sensitivity score: 2.18
HPB-ALL
  selective drug sensitivity score: 1.58
KASUMI-2
  selective drug sensitivity score: 2.38
KOPN-8
  selective drug sensitivity score: 1.78
LC4-1
  selective drug sensitivity score: 1.78
MOLT-14
  selective drug sensitivity score: 2.08
MOLT-16
  selective drug sensitivity score: 4.68
MOLT-4
  selective drug sensitivity score: 1.98
P12-ICHIKAWA
  selective drug sensitivity score: 5.18
P30-OHKUBO
  selective drug sensitivity score: 2.88
SEM cells
  selective drug sensitivity score: 2.18
SUP-B15
  selective drug sensitivity score: 2.48
TANOUE
  selective drug sensitivity score: -1.32

## NC(=O)c1cccc(-c2cccc(OC(=O)NC3CCCCC3)c2)c1 [URB597] (top concentration 1000 nM)
697
  selective drug sensitivity score: -0.36
CCRF-CEM
  selective drug sensitivity score: -0.46
COG-LL-317
  selective drug sensitivity score: -0.46
COG-LL-332h
  selective drug sensitivity score: -0.46
COG-LL-394h
  selective drug sensitivity score: -0.46
COG-LL-402h
  selective drug sensitivity score: -0.46
DND-41
  selective drug sensitivity score: -0.26
HAL-01
  selective drug sensitivity score: 0.64
HPB-ALL
  selective drug sensitivity score: -0.26
KASUMI-2
  selective drug sensitivity score: -0.46
KOPN-8
  selective drug sensitivity score: -0.36
LC4-1
  selective drug sensitivity score: 0.44
MOLT-14
  selective drug sensitivity score: -0.46
MOLT-16
  selective drug sensitivity score: 2.34
MOLT-4
  selective drug sensitivity score: -0.46
P12-ICHIKAWA
  selective drug sensitivity score: -0.46
P30-OHKUBO
  selective drug sensitivity score: -0.46
SEM cells
  selective drug sensitivity score: -0.46
SUP-B15
  selective drug sensitivity score: 0.94
TANOUE
  selective drug sensitivity score: 2.84

## COc1cc2/c(=N/c3ccc(Br)cc3F)nc[nH]c2cc1OCC1CCN(C)CC1 [Vandetanib] (top concentration 1000 nM)
697
  selective drug sensitivity score: 0.18
CCRF-CEM
  selective drug sensitivity score: -0.22
COG-LL-317
  selective drug sensitivity score: -0.22
COG-LL-332h
  selective drug sensitivity score: 0.28
COG-LL-394h
  selective drug sensitivity score: -0.22
COG-LL-402h
  selective drug sensitivity score: 0.18
DND-41
  selective drug sensitivity score: -0.22
HAL-01
  selective drug sensitivity score: 1.68
HPB-ALL
  selective drug sensitivity score: -0.22
KASUMI-2
  selective drug sensitivity score: -0.22
KOPN-8
  selective drug sensitivity score: -0.22
LC4-1
  selective drug sensitivity score: -0.22
MOLT-14
  selective drug sensitivity score: 0.48
MOLT-16
  selective drug sensitivity score: -0.22
MOLT-4
  selective drug sensitivity score: -0.22
P12-ICHIKAWA
  selective drug sensitivity score: -0.22
P30-OHKUBO
  selective drug sensitivity score: 0.38
SEM cells
  selective drug sensitivity score: -0.12
SUP-B15
  selective drug sensitivity score: 1.08
TANOUE
  selective drug sensitivity score: -0.22

## COc1cccc(-c2ccc(NC(=O)C3=C(C(=O)O)CCC3)c(F)c2)c1 [Vidofludimus] (top concentration 10000 nM)
697
  selective drug sensitivity score: 6
CCRF-CEM
  selective drug sensitivity score: 3.1
COG-LL-317
  selective drug sensitivity score: 4.3
COG-LL-332h
  selective drug sensitivity score: 4.9
COG-LL-394h
  selective drug sensitivity score: 0
COG-LL-402h
  selective drug sensitivity score: 0
DND-41
  selective drug sensitivity score: 5.3
HAL-01
  selective drug sensitivity score: 2
HPB-ALL
  selective drug sensitivity score: 3.2
KASUMI-2
  selective drug sensitivity score: 6.2
KOPN-8
  selective drug sensitivity score: 5.5
LC4-1
  selective drug sensitivity score: 6.1
MOLT-14
  selective drug sensitivity score: 3.5
MOLT-16
  selective drug sensitivity score: 5.4
MOLT-4
  selective drug sensitivity score: 3.6
P12-ICHIKAWA
  selective drug sensitivity score: 6.5
P30-OHKUBO
  selective drug sensitivity score: 3
SEM cells
  selective drug sensitivity score: 5.6
SUP-B15
  selective drug sensitivity score: 6
TANOUE
  selective drug sensitivity score: 3

## CC[C@]12C=CCN3CC[C@@]4(c5cc([C@@]6(C(=O)OC)C[C@@H]7C[C@@H](C(C)(F)F)CN(Cc8c6[nH]c6ccccc86)C7)c(OC)cc5N(C)[C@H]4[C@@](O)(C(=O)OC)[C@@H]1OC(C)=O)[C@@H]32 [Vinflunine] (top concentration 1000 nM)
697
  selective drug sensitivity score: 4.68
CCRF-CEM
  selective drug sensitivity score: 3.98
COG-LL-317
  selective drug sensitivity score: 3.88
COG-LL-332h
  selective drug sensitivity score: 3.78
COG-LL-394h
  selective drug sensitivity score: 2.38
COG-LL-402h
  selective drug sensitivity score: 2.78
DND-41
  selective drug sensitivity score: 0.18
HAL-01
  selective drug sensitivity score: 1.38
HPB-ALL
  selective drug sensitivity score: 6.18
KASUMI-2
  selective drug sensitivity score: 5.68
KOPN-8
  selective drug sensitivity score: 7.08
LC4-1
  selective drug sensitivity score: 4.48
MOLT-14
  selective drug sensitivity score: 3.78
MOLT-16
  selective drug sensitivity score: 3.98
MOLT-4
  selective drug sensitivity score: 3.48
P12-ICHIKAWA
  selective drug sensitivity score: 3.98
P30-OHKUBO
  selective drug sensitivity score: 3.68
SEM cells
  selective drug sensitivity score: 6.28
SUP-B15
  selective drug sensitivity score: 3.48
TANOUE
  selective drug sensitivity score: -1.32
